The source of these data is ChEMBL document CHEMBL1152981 (J Med Chem, 2009).

Holding throughout (assay type): cell membranes
Experiment [1] has as its target Glutamate NMDA receptor. The experiment in a line: Displacement of [3H]glycine from strychnine-insensitive glycine recognition site of NMDA receptor in rat brain cortex membrane.
Experiment [2] deals with Glutamate NMDA receptor. The experiment can be described thus: Displacement of [3H]CGP39653 from glutamate recognition site of NMDA receptor in rat brain cortex membrane in presence of glycine antagonist 5,7-dichlorokynurenic acid. (In a radioligand displacement assay an active substance lowers the binding of a labelled ligand.)
The target of experiment [3] is T1, Glutamate NMDA receptor (Rattus norvegicus) (UniProt P35439+Q00959+Q00960+Q00961+Q62645+Q8VHN2+Q9R1M7). The experiment can be described thus: Displacement of [3H]MK-801 from ion channel site of NMDA receptor in rat brain cortex membrane.
A short description of experiment [4]: Partial agonist activity at glycine site of NMDA receptor in rat brain cortex membrane assessed as potentiation of [3H]Mk-801 binding by liquid scintillation counting.
The target in experiment [5] is T1, Glutamate NMDA receptor (Rattus norvegicus). The experiment in a line: Displacement of [3H]spermidine from polyamine site of NMDA receptor in rat brain cortex membrane.
For experiment [6] the target is unchanged. The experiment can be described thus: Displacement of [3H]glycine from strychnine-insensitive glycine recognition site of NMDA receptor in rat brain cortex membrane at 3 uM.

Active and inactive are the calls of the source. The calls are words filed in the database; no cut-off is given here.

For orientation: pKi means the Ki on a negative log10 scale, so that one unit is a factor of ten. In experiment [1], `CC(N)(CO)C(=O)O` (centres undefined) displayed a pKi of less than 4.
In turn, `CCCCCC/C=C/[C@H](N)C(=O)O` displayed a pKi in experiment [1] of 5.9.
Compound `CC[C@@H](N)C(=O)O` yielded a negative-log Ki (pKi) in experiment [1] of less than 4.
Same read-out and setting: to `N[C@@H](/C=C/CCO)C(=O)O` belongs 6.6; to `C=CC[C@@H](N)C(=O)O`, less than 4.
In the case of `NC(C(=O)O)C1CC1` (centres undefined), the pKi in experiment [1] is less than 4.
`NC1(C(=O)O)CCCCC1` yielded a pKi in experiment [1] of less than 3.
The term pEC50 denotes the EC50 on a negative log10 scale, so that one unit is a factor of ten. Consider `CCc1ccccc1-c1cccc2[nH]c(C(=O)NC[C@@H](N)C(=O)O)cc12`, for which the negative-log Ki (pKi) is 5.4 in experiment [2] and 7.6 in experiment [1]. The outcome in experiment [3] and in experiment [5] was inactive. The negative logarithm of the EC50 (pEC50) in experiment [4] turned out to be 7.7.
Consider `N[C@H](CNC(=O)c1cc2ccccc2[nH]1)C(=O)O`, for which the values for the pKi in experiment [2] and in experiment [1] were 3.8 and 5.3, respectively. Also, the result in experiment [3] and in experiment [5] was inactive. For the same compound, the negative-log EC50 (pEC50) in experiment [4] is given as 5.3.
Regarding `N[C@@H](CNC(=O)c1cc2ccccc2[nH]1)C(=O)O`, the pKi in experiment [1] was less than 4.
`CCC/C=C/[C@H](N)C(=O)O` gave a pKi in experiment [1] of 5.4.
`N[C@H](CNC(=O)c1cc2c(Br)cccc2[nH]1)C(=O)O`: the negative logarithm of the Ki (pKi) in experiment [2] amounted to 4.6; in experiment [1], 7. The outcome in experiment [3] and in experiment [5] was inactive. Moreover, the negative logarithm of the EC50 (pEC50) in experiment [4] was found to be 6.6.
`CC(O)[C@@H](N)C(=O)O` (some centres undefined): the result in experiment [6] was inactive.
Turning to `COC[C@@H](N)C(=O)O`, in experiment [6], the outcome was inactive.
For `CCNC(=O)NCC(N)C(=O)O` (racemic), in experiment [1], the negative logarithm of the Ki (pKi) is recorded as less than 4.
`NC(CNC(=O)c1ccco1)C(=O)O` (racemic): the outcome in experiment [3] and in experiment [5] was inactive. In experiment [1], the pKi is listed as 4.9. In addition, the pEC50 in experiment [4] came to 5.1.
`COC(=O)NCC(N)C(=O)O` (racemic) yielded a pKi in experiment [1] of 4.1.
What is called pA2 is the negative logarithm of the molar antagonist concentration that doubles the agonist concentration needed for the same response. Turning to `N#Cc1cccc2sc(C(=O)NCC(N)C(=O)O)cc12` (racemic), the pKi in experiment [2] is on record as less than 4; in experiment [1], 5.9. Also, the result in experiment [3] and in experiment [5] was inactive. Further, the pA2 in experiment [4] came out at 5.5.
Turning to `NC(CNC(=O)c1cc2c(-c3ccc(Cl)cc3Cl)cccc2s1)C(=O)O` (racemic), the pKi was less than 4.5 in experiment [2] and 4.7 in experiment [1]. For the same compound, the outcome in experiment [3] and in experiment [5] was inactive. In experiment [4], the pA2 was determined as 5.1.
In the case of `NC(CNC(=O)c1cc2ccc(Cl)cc2[nH]1)C(=O)O` (racemic), the pKi in experiment [1] was 4.9.
As to `NC(CNC(=O)c1cc2cccc(Cl)c2[nH]1)C(=O)O` (racemic), the pKi in experiment [1] worked out at 5.5.
Consider `NC(CNC(=O)c1c[nH]c2ccccc12)C(=O)O` (racemic), for which the result in experiment [3] and in experiment [5] was inactive. Besides, the negative-log Ki (pKi) in experiment [1] is listed as 5.4.
Take `NC(CNC(=O)c1cc2c(Cl)cccc2s1)C(=O)O` (racemic): the pKi is reported as less than 4 in experiment [2] and 6.5 in experiment [1].
Take `COc1cccc2[nH]c(C(=O)NCC(N)C(=O)O)cc12` (racemic): the figures for the negative logarithm of the Ki (pKi) in experiment [2] and in experiment [1] were 4.1 and 5.9, respectively.
As for `CCCc1c(C(=O)NCC(N)C(=O)O)[nH]c2cccc(-c3ccccc3CC)c12` (racemic), the results for the negative-log Ki (pKi) in experiment [2] and in experiment [1] were 5.3 and 6.8, respectively.
On to `CCCc1ccccc1-c1cccc2[nH]c(C(=O)NCC(N)C(=O)O)cc12` (racemic), for which the pKi in experiment [2] amounted to 5.4; in experiment [1] it was 7.3. Moreover, the pEC50 in experiment [4] amounted to 7.6.
`NC(CNC(=O)c1cc2cc(Cl)ccc2[nH]1)C(=O)O` (racemic) showed a pKi in experiment [1] of 4.7.
Regarding `NC(CNC(=O)c1cc2c(Cl)ccc(Cl)c2[nH]1)C(=O)O` (racemic), the pKi came out at 4 in experiment [2] and 6.8 in experiment [1]. Further, the pA2 in experiment [4] turned out to be 6.2.
On to `CCc1ccccc1-c1cccc2sc(C(=O)NCC(N)C(=O)O)cc12` (racemic), for which the pKi in experiment [2] is reported as 3.9; in experiment [1], 6.2. Moreover, the outcome in experiment [3] and in experiment [5] was inactive.
Regarding `NC(CNC(=O)c1cc2c(Br)cccc2[nH]1)C(=O)O` (racemic), the pKi in experiment [2] was determined as 4.7; in experiment [1], 6.8.
For the compound `Cn1c(C(=O)NCC(N)C(=O)O)cc2ccccc21` (racemic), in experiment [1], the negative-log Ki (pKi) is reported as 4.9.
With `NC(CNC(=O)C1=Cc2ccccc2C1)C(=O)O` (racemic), the negative-log Ki (pKi) in experiment [2] is less than 4; in experiment [1], 5.5.
Consider `NC(CNC(=O)Cc1c[nH]c2ccccc12)C(=O)O` (racemic), for which the negative-log Ki (pKi) in experiment [1] is reported as less than 4.
As for `NC(CNC(=O)c1ccc2ccccc2c1)C(=O)O` (racemic), the values for the pKi in experiment [2] and in experiment [1] were less than 4 and 5.9, respectively. Besides, the outcome in experiment [3] and in experiment [5] was inactive.
Regarding `NC(CNC(=O)c1cc2c(-c3ccccc3)cccc2[nH]1)C(=O)O` (racemic), the negative-log Ki (pKi) in experiment [2] came out at 4.7; in experiment [1] it was 5.6.
Regarding `Cn1c(C(=O)NCC(N)C(=O)O)cc2c(Br)cccc21` (racemic), the negative logarithm of the Ki (pKi) in experiment [1] is 5.
In experiment [1], `NC(CNC(=O)C1Cc2ccccc2C1)C(=O)O` (racemic) registered a pKi of less than 4.
As for `NC(CNC(=O)c1cc2c(Br)cccc2s1)C(=O)O` (racemic), the negative logarithm of the Ki (pKi) is less than 4 in experiment [2] and 6.4 in experiment [1]. For the same compound, the outcome in experiment [3] and in experiment [5] was inactive.
`NC(CNC(=O)c1ccc[nH]1)C(=O)O` (racemic): the result in experiment [3] and in experiment [5] was inactive. This compound registered a pKi in experiment [1] of 4.9. For the same compound, the negative-log EC50 (pEC50) in experiment [4] is 5.
With `NC(CNC(=O)Cc1c[nH]c2cccc(Br)c12)C(=O)O` (racemic), the pKi in experiment [2] is given as less than 4; in experiment [1] it was 4.3.
With `CCc1ccccc1-c1cccc2cc(C(=O)NCC(N)C(=O)O)ccc12` (racemic), the pKi was determined as 4.5 in experiment [2] and 5.7 in experiment [1].
Consider `NC(CNC(=O)c1cc2c(Cl)cccc2[nH]1)C(=O)O` (racemic), for which the negative logarithm of the Ki (pKi) was 4.1 in experiment [2] and 6 in experiment [1].
As to `Cc1ccccc1-c1cccc2[nH]c(C(=O)NCC(N)C(=O)O)cc12` (racemic), the results for the negative-log Ki (pKi) in experiment [2] and in experiment [1] were 5.2 and 6.5, respectively. Moreover, the negative-log EC50 (pEC50) in experiment [4] is 6.9.
Take `COc1ccccc1-c1cccc2[nH]c(C(=O)NCC(N)C(=O)O)cc12` (racemic): the results for the negative logarithm of the Ki (pKi) in experiment [2] and in experiment [1] were 4.3 and 5.6, respectively.
Take `CCc1ccccc1-c1ccc(Cl)c2[nH]c(C(=O)NCC(N)C(=O)O)cc12` (racemic): the pKi is less than 4.5 in experiment [2] and 6.9 in experiment [1].
As to `NC(CNC(=O)c1cc2ccccc2o1)C(=O)O` (racemic), the negative logarithm of the Ki (pKi) in experiment [2] was less than 4; in experiment [1], 5.2.
On to `NC(CNC(=O)c1ccc2c(Br)cccc2c1)C(=O)O` (racemic), for which the negative logarithm of the Ki (pKi) in experiment [2] was determined as 4.3; in experiment [1], 6.6.
On the same counts, the results for `CC(C)c1ccccc1-c1cccc2[nH]c(C(=O)NCC(N)C(=O)O)cc12` (racemic) are 5.6 and 7.3.
Regarding `CN(C)c1ccccc1-c1cccc2[nH]c(C(=O)NCC(N)C(=O)O)cc12` (racemic), the pKi in experiment [2] worked out at 4.1; in experiment [1], 5.8. Further, in experiment [4], the pEC50 came out at 6.5.
As for `NC(CNC(=O)c1ccccn1)C(=O)O` (racemic), the pKi in experiment [1] came to 4.4.
For the compound `NC(CNC(=O)c1cccc2ccccc12)C(=O)O` (racemic), the pKi is recorded as less than 4 in experiment [2] and 5.9 in experiment [1].
With `CCCc1c(C(=O)NCC(N)C(=O)O)[nH]c2ccccc12` (racemic), the pKi in experiment [2] is listed as 3.8; in experiment [1] it was 6.3. The outcome in experiment [3] and in experiment [5] was inactive. Moreover, the pA2 in experiment [4] is given as 5.7.
In experiment [1], `CCc1ccccc1-c1cccc2c1cc(C(=O)NCC(N)C(=O)O)n2C` (racemic) registered a negative logarithm of the Ki (pKi) of 3.9.
Regarding `Cc1c(C(=O)NCC(N)C(=O)O)[nH]c2ccccc12` (racemic), the pKi in experiment [1] was 5.5.
On to `CCCc1c(C(=O)NCC(N)C(=O)O)[nH]c2cccc(Br)c12` (racemic), for which the values for the pKi in experiment [2] and in experiment [1] were 4.2 and 6.5, respectively. The pA2 in experiment [4] came out at 6.
As to `NC(CNC(=O)c1ccc2ccccc2n1)C(=O)O` (racemic), the figures for the negative logarithm of the Ki (pKi) in experiment [2] and in experiment [1] were less than 4 and 5.6, respectively.
The like results for `CCc1ccccc1-c1cccc2[nH]c(C(=O)NCC(N)C(=O)O)cc12` (racemic) were, in that order, 4.9 and 7.5.
On to `NC(CNC(=O)c1cc2c(-c3ccccc3Cc3ccccc3)cccc2[nH]1)C(=O)O` (racemic), for which the values for the pKi in experiment [2] and in experiment [1] were less than 5.5 and 6, respectively. Besides, the pEC50 in experiment [4] came to 6.5.
In the case of `NC(CNC(=O)c1[nH]c2cccc(Br)c2c1[N+](=O)[O-])C(=O)O` (racemic), the negative-log Ki (pKi) in experiment [2] was found to be 4.9; in experiment [1], 6.1.
Turning to `NC1(C(=O)O)CCC1` [1-AMINOCYCLOBUTANE CARBOXYLIC ACID], the negative logarithm of the Ki (pKi) in experiment [1] stood at 4.8.
As for `NC1(C(=O)O)CC1` [1-Aminocyclopropane carboxylic acid], the negative logarithm of the Ki (pKi) in experiment [1] was determined as 6.8.
Regarding `NC1(C(=O)O)CCCC1` [CYCLOLEUCINE], in experiment [1], the pKi worked out at 2.7.
Same read-out and setting: as for `C[C@@H](N)C(=O)O` [D-ALANINE], the figure is 6.2.
